Test results taken from ChEMBL document CHEMBL4765323, “Design, synthesis, and biological evaluation of novel miconazole analogues containing selenium as potent antifungal agents” (Eur J Med Chem, 2020).
Converted amounts (≈) assume the structure as drawn.

What was measured:
[1] = test system: Candida albicans; assay: Antifungal activity against Candida albicans CPCC400616 measured after 24 hrs by micro-broth dilution assay; type: functional
[2] = test system: Candida albicans; assay: Antifungal activity against Candida albicans ATCC SC5314 measured after 24 hrs by micro-broth dilution assay; type: functional
[3] = test system: [Candida] zeylanoides; assay: Antifungal activity against Candida zeylanoides CMGCC2.3739 measured after 24 hrs by micro-broth dilution assay; type: functional; conditions: Dujonia zeylanoides
[4] = test system: Cryptococcus neoformans; assay: Antifungal activity against Cryptococcus neoformans CGMCC2.3161 measured after 72 hrs by micro-broth dilution assay; type: functional
[5] = test system: Pichia kudriavzevii; assay: Antifungal activity against Candida krusei AS 2.1045 measured after 24 hrs by micro-broth dilution assay; type: functional
[6] = test system: Nakaseomyces glabratus; assay: Antifungal activity against clinical isolate Candida glabrata measured after 24 hrs by micro-broth dilution assay; type: functional
[7] = test system: Candida parapsilosis; assay: Antifungal activity against Candida parapsilosis ATCC 22019 measured after 24 hrs by micro-broth dilution assay; type: functional; conditions: Lodderomyces parapsilosis
[8] = test system: Aspergillus fumigatus; assay: Antifungal activity against Aspergillus fumigatus CGMCC 3.7795 measured after 72 hrs by micro-broth dilution assay; type: functional
[9] = test system: Candida albicans; assay: Antifungal activity against fluconazole-resistant Candida albicans CaR measured after 24 hrs by micro-broth dilution assay; type: functional
[10] = test system: Candida albicans; assay: Antifungal activity against fluconazole-resistant Candida albicans 17 measured after 24 hrs by micro-broth dilution assay; type: functional
[11] = test system: Candida albicans; assay: Antifungal activity against fluconazole-resistant Candida albicans 632 measured after 24 hrs by micro-broth dilution assay; type: functional
[12] = test system: Candida albicans; assay: Antifungal activity against Candida albicans 901 measured after 24 hrs by micro-broth dilution assay; type: functional
[13] = test system: Candida albicans; assay: Antifungal activity against fluconazole-resistant Candida albicans strain 904 measured after 24 hrs by micro-broth dilution assay; type: functional
[14] = test system: Candida albicans; assay: Fungicidal activity against Candida albicans CPCC400616 measured after 48 hrs; type: functional
[15] = Ratio of MFC for fungicidal activity against Candida albicans CPCC400616 to MIC for Antifungal activity against Candida albicans CPCC400616; type: functional; conditions: time 24 hrs
[16] = Ratio of hemolysis activity in rabbit RBC to MIC for Candida albicans; type: toxicity; conditions: rabbit red blood cells (RBC)

## Fc1ccc(C(Cn2ccnc2)[Se]Cc2ccc(Cl)cc2Cl)c(F)c1 (stereo unspecified)
[1]
  MIC: 0.03 µg/mL (≈ 0.0672 µM)
[2]
  MIC: 0.13 µg/mL (≈ 0.291 µM)
[3]
  MIC: 0.5 µg/mL (≈ 1.12 µM)
[4]
  MIC: 0.25 µg/mL (≈ 0.56 µM)
[5]
  MIC: 0.06 µg/mL (≈ 0.134 µM)
[6]
  MIC: 1 µg/mL (≈ 2.24 µM)
[7]
  MIC: 0.03 µg/mL (≈ 0.0672 µM)
[8]
  MIC: 0.5 µg/mL (≈ 1.12 µM)
[9]
  MIC: 16 µg/mL (≈ 35.9 µM)
[10]
  MIC: 1 µg/mL (≈ 2.24 µM)
[11]
  MIC: 2 µg/mL (≈ 4.48 µM)
[12]
  MIC: 0.5 µg/mL (≈ 1.12 µM)
[13]
  MIC: 2 µg/mL (≈ 4.48 µM)
[14]
  MIC: 0.125 µg/mL (≈ 0.28 µM)
[15]
  MFC/MIC ratio: 4
[16]
  selectivity ratio: 64

## Fc1ccc(C(Cn2ccnc2)[Se]Cc2ccccc2Br)c(F)c1 (stereo unspecified)
[1]
  MIC: 0.02 µg/mL (≈ 0.0438 µM)
[2]
  MIC: 0.01 µg/mL (≈ 0.0219 µM)
[3]
  MIC: 0.25 µg/mL (≈ 0.548 µM)
[4]
  MIC: 0.25 µg/mL (≈ 0.548 µM)
[5]
  MIC: 0.06 µg/mL (≈ 0.132 µM)
[6]
  MIC: 1 µg/mL (≈ 2.19 µM)
[7]
  MIC: 0.02 µg/mL (≈ 0.0438 µM)
[8]
  MIC: 1 µg/mL (≈ 2.19 µM)
[9]
  MIC: 0.13 µg/mL (≈ 0.285 µM)
[10]
  MIC: 0.06 µg/mL (≈ 0.132 µM)
[11]
  MIC: 0.25 µg/mL (≈ 0.548 µM)
[12]
  MIC: 0.25 µg/mL (≈ 0.548 µM)
[13]
  MIC: 0.06 µg/mL (≈ 0.132 µM)
[14]
  MIC: 0.125 µg/mL (≈ 0.274 µM)
[15]
  MFC/MIC ratio: 8
[16]
  selectivity ratio: 512

## Fc1cccc(C[Se]C(Cn2ccnc2)c2ccc(F)cc2F)c1 (stereo unspecified)
[1]
  MIC: 0.03 µg/mL (≈ 0.0759 µM)
[2]
  MIC: 0.03 µg/mL (≈ 0.0759 µM)
[3]
  MIC: 1 µg/mL (≈ 2.53 µM)
[4]
  MIC: 0.5 µg/mL (≈ 1.26 µM)
[5]
  MIC: 0.13 µg/mL (≈ 0.329 µM)
[6]
  MIC: 0.5 µg/mL (≈ 1.26 µM)
[7]
  MIC: 0.25 µg/mL (≈ 0.632 µM)
[8]
  MIC: 2 µg/mL (≈ 5.06 µM)
[9]
  MIC: 4 µg/mL (≈ 10.1 µM)
[10]
  MIC: 0.06 µg/mL (≈ 0.152 µM)
[11]
  MIC: 8 µg/mL (≈ 20.2 µM)
[12]
  MIC: 8 µg/mL (≈ 20.2 µM)
[13]
  MIC: 1 µg/mL (≈ 2.53 µM)
[14]
  MIC: > 128 µg/mL

## Clc1ccc(C(Cn2ccnc2)[Se]Cc2ccccc2Br)c(Cl)c1 (stereo unspecified)
[1]
  MIC: 0.02 µg/mL (≈ 0.0409 µM)
[2]
  MIC: 0.01 µg/mL (≈ 0.0204 µM)
[3]
  MIC: 0.25 µg/mL (≈ 0.511 µM)
[4]
  MIC: 0.5 µg/mL (≈ 1.02 µM)
[5]
  MIC: 0.25 µg/mL (≈ 0.511 µM)
[6]
  MIC: 0.5 µg/mL (≈ 1.02 µM)
[7]
  MIC: 0.03 µg/mL (≈ 0.0613 µM)
[8]
  MIC: 1 µg/mL (≈ 2.04 µM)
[9]
  MIC: 0.5 µg/mL (≈ 1.02 µM)
[10]
  MIC: 0.5 µg/mL (≈ 1.02 µM)
[11]
  MIC: 1 µg/mL (≈ 2.04 µM)
[12]
  MIC: 1 µg/mL (≈ 2.04 µM)
[13]
  MIC: 0.25 µg/mL (≈ 0.511 µM)
[14]
  MIC: 0.25 µg/mL (≈ 0.511 µM)
[15]
  MFC/MIC ratio: 16
